# Organism: Rattus norvegicus
# Assay: DrugMatrix - Regimen: Daily Repeat
# Format: toxicity, organism-based, Sprague-Dawley
# Set-up: regimen Daily Repeat, gender Male, age 6-8 weeks
# Conditions: in vivo, po, route oral GAVAGE, vehicle 100 % WATER; for ABSOLUTE BASOPHIL / ABSOLUTE EOSINOPHIL / ABSOLUTE LYMPHOCYTE / ABSOLUTE MONOCYTE / ABSOLUTE SEGMENTED NEUTROPHIL / BASOPHIL / EOSINOPHIL / ERYTHROCYTE COUNT / HEMATOCRIT / HEMOGLOBIN / LEUKOCYTE COUNT / LYMPHOCYTE / MEAN CORPUSCULAR HEMOGLOBIN / MEAN CORPUSCULAR HEMOGLOBIN CONCENTRATION / MEAN CORPUSCULAR VOLUME / MONOCYTE / NEUTROPHIL / NUCLEATED RED BLOOD CELLS / PLATELET COUNT: tissue Blood; for ALANINE AMINOTRANSFERASE / ALBUMIN / ALKALINE PHOSPHATASE / ASPARTATE AMINOTRANSFERASE / BLOOD UREA NITROGEN / CARBON DIOXIDE / CHLORIDE / CHOLESTEROL / CREATINE PHOSPHOKINASE / CREATININE / GLUCOSE / LACTATE DEHYDROGENASE / LIPASE / PHOSPHORUS / POTASSIUM / SODIUM / TOTAL BILIRUBIN / TOTAL PROTEIN / URIC ACID: tissue Plasma
# [1] = 200 mg/kg, 120 h, dose level Low, time 5 day
# [2] = 2000 mg/kg, 72 h, dose level High, time 3 day
# [3] = 2000 mg/kg, 120 h, dose level High, time 5 day
smiles,measurement,setting,value
CC(O)CO (centres undefined) [PROPYLENE GLYCOL],ABSOLUTE BASOPHIL,[1],0 CELLS/uL
same,ABSOLUTE EOSINOPHIL,[1],0 CELLS/uL
same,ABSOLUTE LYMPHOCYTE,[1],15454 CELLS/uL
same,ABSOLUTE MONOCYTE,[1],284.33 CELLS/uL
same,ABSOLUTE SEGMENTED NEUTROPHIL,[1],1261.67 CELLS/uL
same,BASOPHIL,[1],0%
same,EOSINOPHIL,[1],0%
same,ERYTHROCYTE COUNT,[1],5.7 x10E6/uL
same,HEMATOCRIT,[1],35.5%
same,HEMOGLOBIN,[1],14.1 G/DL
same,LEUKOCYTE COUNT,[1],17 x10E3/uL
same,LYMPHOCYTE,[1],91%
same,MEAN CORPUSCULAR HEMOGLOBIN,[1],24.83 pg
same,MEAN CORPUSCULAR HEMOGLOBIN CONCENTRATION,[1],39.73 G/DL
same,MEAN CORPUSCULAR VOLUME,[1],62.37 fL
same,MONOCYTE,[1],1.67%
same,NEUTROPHIL,[1],7.33%
same,NUCLEATED RED BLOOD CELLS,[1],0 /100WBC
same,PLATELET COUNT,[1],1288 x10E3/uL
same,ALANINE AMINOTRANSFERASE,[1],49.33 u/L
same,ALBUMIN,[1],4.37 G/DL
same,ALKALINE PHOSPHATASE,[1],314.33 u/L
same,ASPARTATE AMINOTRANSFERASE,[1],76.33 u/L
same,BLOOD UREA NITROGEN,[1],18 mg/dL
same,CARBON DIOXIDE,[1],25.33 mmol/L
same,CHLORIDE,[1],101 MEQ/L
same,CHOLESTEROL,[1],73 mg/dL
same,CREATINE PHOSPHOKINASE,[1],227.67 u/L
same,CREATININE,[1],0.16 mg/dL
same,GLUCOSE,[1],165.67 mg/dL
same,LACTATE DEHYDROGENASE,[1],181.67 u/L
same,LIPASE,[1],8.33 u/L
same,PHOSPHORUS,[1],12.87 mg/dL
same,POTASSIUM,[1],6.99 MEQ/L
same,SODIUM,[1],143.7 MEQ/L
same,TOTAL BILIRUBIN,[1],0.23 mg/dL
same,TOTAL PROTEIN,[1],6.03 G/DL
same,URIC ACID,[1],2.13 mg/dL
same,ABSOLUTE BASOPHIL,[2],0 CELLS/uL
same,ABSOLUTE EOSINOPHIL,[2],0 CELLS/uL
same,ABSOLUTE LYMPHOCYTE,[2],11801.33 CELLS/uL
same,ABSOLUTE MONOCYTE,[2],112 CELLS/uL
same,ABSOLUTE SEGMENTED NEUTROPHIL,[2],1053.33 CELLS/uL
same,BASOPHIL,[2],0%
same,EOSINOPHIL,[2],0%
same,ERYTHROCYTE COUNT,[2],5.54 x10E6/uL
same,HEMATOCRIT,[2],34.73%
same,HEMOGLOBIN,[2],13.73 G/DL
same,LEUKOCYTE COUNT,[2],12.97 x10E3/uL
same,LYMPHOCYTE,[2],90.33%
same,MEAN CORPUSCULAR HEMOGLOBIN,[2],24.8 pg
same,MEAN CORPUSCULAR HEMOGLOBIN CONCENTRATION,[2],39.53 G/DL
same,MEAN CORPUSCULAR VOLUME,[2],62.77 fL
same,MONOCYTE,[2],1%
same,NEUTROPHIL,[2],8.67%
same,NUCLEATED RED BLOOD CELLS,[2],0 /100WBC
same,PLATELET COUNT,[2],1166 x10E3/uL
same,ALANINE AMINOTRANSFERASE,[2],53.33 u/L
same,ALBUMIN,[2],4.3 G/DL
same,ALKALINE PHOSPHATASE,[2],390 u/L
same,ASPARTATE AMINOTRANSFERASE,[2],82 u/L
same,BLOOD UREA NITROGEN,[2],14.33 mg/dL
same,CARBON DIOXIDE,[2],23 mmol/L
same,CHLORIDE,[2],100.67 MEQ/L
same,CHOLESTEROL,[2],65.33 mg/dL
same,CREATINE PHOSPHOKINASE,[2],195 u/L
same,CREATININE,[2],0.18 mg/dL
same,GLUCOSE,[2],154.67 mg/dL
same,LACTATE DEHYDROGENASE,[2],119.33 u/L
same,LIPASE,[2],10.67 u/L
same,PHOSPHORUS,[2],12.87 mg/dL
same,POTASSIUM,[2],6.42 MEQ/L
same,SODIUM,[2],143.1 MEQ/L
same,TOTAL BILIRUBIN,[2],0.17 mg/dL
same,TOTAL PROTEIN,[2],5.93 G/DL
same,URIC ACID,[2],1.53 mg/dL
same,ABSOLUTE BASOPHIL,[3],0 CELLS/uL
same,ABSOLUTE EOSINOPHIL,[3],46 CELLS/uL
same,ABSOLUTE LYMPHOCYTE,[3],14960.67 CELLS/uL
same,ABSOLUTE MONOCYTE,[3],42.67 CELLS/uL
same,ABSOLUTE SEGMENTED NEUTROPHIL,[3],1217.33 CELLS/uL
same,BASOPHIL,[3],0%
same,EOSINOPHIL,[3],0.33%
same,ERYTHROCYTE COUNT,[3],5.65 x10E6/uL
same,HEMATOCRIT,[3],35.27%
same,HEMOGLOBIN,[3],14 G/DL
same,LEUKOCYTE COUNT,[3],16.27 x10E3/uL
same,LYMPHOCYTE,[3],91.67%
same,MEAN CORPUSCULAR HEMOGLOBIN,[3],24.83 pg
same,MEAN CORPUSCULAR HEMOGLOBIN CONCENTRATION,[3],39.7 G/DL
same,MEAN CORPUSCULAR VOLUME,[3],62.5 fL
same,MONOCYTE,[3],0.33%
same,NEUTROPHIL,[3],7.67%
same,NUCLEATED RED BLOOD CELLS,[3],0 /100WBC
same,PLATELET COUNT,[3],1315.33 x10E3/uL
same,ALANINE AMINOTRANSFERASE,[3],52 u/L
same,ALBUMIN,[3],4.3 G/DL
same,ALKALINE PHOSPHATASE,[3],327.33 u/L
same,ASPARTATE AMINOTRANSFERASE,[3],76.67 u/L
same,BLOOD UREA NITROGEN,[3],17.33 mg/dL
same,CARBON DIOXIDE,[3],27 mmol/L
same,CHLORIDE,[3],102 MEQ/L
same,CHOLESTEROL,[3],69 mg/dL
same,CREATINE PHOSPHOKINASE,[3],218 u/L
same,CREATININE,[3],0.16 mg/dL
same,GLUCOSE,[3],159.33 mg/dL
same,LACTATE DEHYDROGENASE,[3],121 u/L
same,LIPASE,[3],8.67 u/L
same,PHOSPHORUS,[3],12.4 mg/dL
same,POTASSIUM,[3],5.9 MEQ/L
same,SODIUM,[3],144.67 MEQ/L
same,TOTAL BILIRUBIN,[3],0.17 mg/dL
same,TOTAL PROTEIN,[3],6.07 G/DL
same,URIC ACID,[3],1.43 mg/dL

# Source: ChEMBL document CHEMBL3885881, “DrugMatrix”
